Measurements published in US11198869B2, “Angelman syndrome antisense treatment” (The Texas A&M University System, priority 2017, dated 2021).

Experiments:
SNORD109A/B = SNORD109A/B steady state RNA (qRT-PCR) in GABAergic iPSC-derived neurons; settings: 10-point dose curve 1 nM-30 μM; 14 DIV to 20 DIV
SNORD115 = SNORD115 steady state RNA (qRT-PCR) in GABAergic iPSC-derived neurons; settings: 10-point dose curve 1 nM-30 μM; 14 DIV to 20 DIV
[1] = tested on: SNORD116 host-gene transcript (SNHG116); test: RNA-sequencing of Angelman syndrome iPSC neurons: SNHG116; format: cell-based, human; settings: 30 μM; six days post-treatment; RNA-seq
Description: (§1) RNA was isolated using Qiagen RNAeasy Plus (74136, Qiagen, Hilden, Germany). RNA concentration was determined using Qubit Fluorometric Quantitation (Thermo Fisher Scientific) and RNA quality was assessed using a 4200 Agilent TapeStation (Agilent, Santa Clara, Calif.). RNA-sequencing libraries were generated using the Illumina TruSeq Stranded Total RNA kit (20020597, Illumina, Inc., San Diego, Calif.) according to the manufacturer's protocol. 75 base-pair paired-end sequencing was performed using a NextSeq 500 (IIlumina, San Diego, Calif.) at the Texas A&M Institute for Genome Sciences and Society Genomics core. Raw sequencing reads were processed using CASAVA. The resulting FASTQ sequences were examined using FASTQC. […]
(§2) To determine whether ASO-4.4.PS.L and ASO-6.1.PO-1.O affect the levels of RNA transcripts encoded by the PWS polycistronic transcript, RNA-sequencing was performed on AS iPS cells treated with each ASO and the steady state RNA levels of SNURF, SNRPN, the SNORD116 host-gene transcript (SNHG116), the SNORD116 snoRNAs, IPW, the SNORD115 host-gene transcript (SNHG115), the SNORD115 snoRNAs, and UBE3A-AS were quantified. UBE3A steady state RNA levels were also measured. […]

UBE3A-AS = test: RNA-sequencing of Angelman syndrome iPSC neurons: UBE3A-AS; format: cell-based, human; settings: 30 μM; RNA-seq; relative to vehicle
Description: as §1, §2

Row | Molecule | effect on SNORD109A/B RNA levels (in words) (SNORD109A/B) | effect on SNORD115 RNA levels (in words) (SNORD115) | Difference, SNHG116 RNA level relative to vehicle [1] | effect on UBE3A-AS RNA levels (UBE3A-AS)
1 | CC[C@@]1(O)C(=O)OCc2c1cc1n(c2=O)Cc2cc3c(CN(C)C)c(O)ccc3nc2-1 [Topotecan, reference compound] | significant effect on SNORD116, IPW, SNORD115, and SNORD109A/B RNA levels that was dose dependent | significant effect on SNORD116, IPW, SNORD115, and SNORD109A/B RNA levels that was dose dependent |  | 
2 | A^L*G^L*A^L*a*t*g*g*c*a*c*a*t*c*t*5mC^L*T^L*T^L*G^L (NNNATGGCACATCTNNNN; LNA gapmer, PS, 5-methylcytosine, chemistry not fully specified) [ASO-4.4.PS.L] |  |  | −0.24 | −6.1 fold change
3 | C^O*U^O*G^O*G^O-t*g*t*c*a*a*c*a*a*g-C^O*C^O*A^O*A^o [ASO-6.1.PO-1.O] |  |  | −0.07 | −2.8 fold change
4 | U^O*A^O*G^O*A^O*A^O*t*g*g*c*a*c*a*t*c*t*C^O*U^O*U^O*G^O*G^O [ASO-4] | significant effect on the RNA levels of IPW, SNORD115, and SNORD109A/B but not in a dose dependent manner | significant effect on the RNA levels of IPW, SNORD115, and SNORD109A/B but not in a dose dependent manner |  | 
